Structures can show the parent of a compound that is named as a salt.
How the values were obtained:
Neuropeptide Y2 receptor = molecular target: T1, Neuropeptide Y2 receptor (Rattus norvegicus, UniProt Q9ERC0); experiment: Binding to Neuropeptide Y2, Method (III), [125I]-PYY3-36, rat hypoccampus membranes; conditions: [125I]-PYY(3-36)
T1 construct: from tissue; host or cells: rat hippocampus membranes (male Wistar rats)
T1 sequence (Q9ERC0 1-381): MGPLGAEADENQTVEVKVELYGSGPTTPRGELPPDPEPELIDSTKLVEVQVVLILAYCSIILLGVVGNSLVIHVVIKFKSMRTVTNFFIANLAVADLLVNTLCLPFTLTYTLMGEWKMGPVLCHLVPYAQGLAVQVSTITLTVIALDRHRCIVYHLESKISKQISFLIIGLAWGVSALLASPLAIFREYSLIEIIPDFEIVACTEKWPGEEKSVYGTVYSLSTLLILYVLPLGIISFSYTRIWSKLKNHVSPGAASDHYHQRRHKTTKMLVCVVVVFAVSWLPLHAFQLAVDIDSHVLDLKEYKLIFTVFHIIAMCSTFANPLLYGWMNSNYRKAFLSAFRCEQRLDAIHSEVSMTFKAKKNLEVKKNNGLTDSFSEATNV
Description: Binding to Neuropeptide Y2
(§1) Male Wistar rats are sacrificed by decapitation, their brains are rapidly removed and the hypoccampus is dissected. Homogenization is performed in cold conditions in the buffer: 120 mM NaCl, 4.7 mM KCl, 2.2 mM CaCl2, 1.2 mM KH2PO4, 1.2 mM MgSO4, 25 mM NaHCO3, 5.5 mM glucose, pH 7.4, by means of a Ultra-Turrax homogenizer for 15 seconds at 13,500 rpm. The ratio between fresh tissue weight and buffer volume is of ten times. The membrane is centrifuged for 10 min at 48,000 g. The supernatant is discarded and the pellet is washed, resuspended and recentrifuged two more times. The final membrane resuspension is performed in the buffer: 120 mM NaCl, 4.7 mM KCl, 2.2 mM CaCl2, 1.2 mM KH2PO4, 1.2 mM MgSO4, 25 mM NaHCO3, 5.5 mM glucose, 0.1% BSA, 0.05% bacitracin, pH 7.4, at a 90 ml/g ratio of fresh issue. […] Incubation volume: 500 μl. […] The filters are cold-washed three times with three milliliters of the same buffer used in homogenization. […] Non-specific binding is determined in the presence of 1 μM of pNPY (Neuropeptide Y of porcine origin). The assays are performed in triplicate.

[1] = molecular target: T2, recombinant human 5HT6 receptor (Homo sapiens, UniProt P50406); experiment: Binding to the 5HT6 serotonin receptor, [3H]-LSD, HEK-293 cell membranes
T2 construct: purchased Receptor Biology; host or cells: HEK-293 cell membranes
T2 sequence (P50406 whole entry): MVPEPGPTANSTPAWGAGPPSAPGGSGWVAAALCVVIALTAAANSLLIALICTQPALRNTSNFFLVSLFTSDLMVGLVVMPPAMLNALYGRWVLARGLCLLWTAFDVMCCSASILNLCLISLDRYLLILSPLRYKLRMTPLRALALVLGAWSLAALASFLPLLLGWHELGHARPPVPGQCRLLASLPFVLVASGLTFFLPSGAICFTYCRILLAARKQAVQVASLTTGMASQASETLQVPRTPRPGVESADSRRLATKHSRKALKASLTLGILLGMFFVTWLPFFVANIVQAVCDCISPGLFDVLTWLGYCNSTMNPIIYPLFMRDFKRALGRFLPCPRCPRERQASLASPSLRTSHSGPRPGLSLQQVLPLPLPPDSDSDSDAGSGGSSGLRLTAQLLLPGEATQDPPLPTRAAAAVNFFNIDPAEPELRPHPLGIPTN
Description: Binding to the 5HT6 Serotonin Receptor
The respective part of the literature descriptions is incorporated here by reference and form part of the disclosure. […] The assays are carried out in triplicate.

Neuropeptide Y5 receptor = molecular target: T3, Neuropeptide Y5 receptor (Rattus norvegicus, UniProt Q63634); experiment: Neuropeptide Y5 receptor binding, Method (I), [125I]-PYY3-36 with BIBP 3226, rat cortex membranes; conditions: [125I]-PYY(3-36), BIBP 3226 sat.
T3 construct: from tissue; host or cells: rat brain cortex membranes (male Wistar rats)
T3 sequence (Q63634 1-445): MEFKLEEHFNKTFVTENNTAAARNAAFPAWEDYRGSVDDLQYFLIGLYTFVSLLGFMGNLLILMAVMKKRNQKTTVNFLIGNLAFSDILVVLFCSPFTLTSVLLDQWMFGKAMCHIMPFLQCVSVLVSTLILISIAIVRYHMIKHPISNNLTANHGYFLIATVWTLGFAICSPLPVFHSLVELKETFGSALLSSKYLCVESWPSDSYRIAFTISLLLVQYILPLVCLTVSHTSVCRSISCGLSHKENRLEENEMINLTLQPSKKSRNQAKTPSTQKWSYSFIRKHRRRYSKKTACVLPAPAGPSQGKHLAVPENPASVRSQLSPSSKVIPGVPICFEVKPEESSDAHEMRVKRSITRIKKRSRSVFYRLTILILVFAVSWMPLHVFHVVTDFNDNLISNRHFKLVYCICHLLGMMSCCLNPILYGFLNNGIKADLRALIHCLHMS
Description: as §1, with “the cortex” for “the hypoccampus”, “of twenty” for “of ten”, “recentrifuged three” for “recentrifuged two”, “times.” for “times. The final membrane resuspension is performed in the buffer: 120 mM NaCl, 4.7 mM KCl, 2.2 mM CaCl2, 1.2 mM KH2PO4, 1.2 mM MgSO4, 25 mM NaHCO3, 5.5 mM glucose, 0.1% BSA, 0.05% bacitracin, pH 7.4, at a 90 ml/g ratio of fresh issue.”, “with two” for “with three”

rat Y5 receptor = molecular target: T4, rat Y5 receptor (Rattus norvegicus, UniProt Q63634); experiment: Neuropeptide Y5 receptor binding, Method (II), [125I]-PYY, C6 cells transfected with rat Y5 receptor; conditions: Y5 rat recombinant receptor, cell C6
T4 construct: expressed in transfected cells; host or cells: C6 cells
T4 sequence (Q63634 1-445): T3 sequence (Q63634 1-445)
Description: Neuropeptide Y5 Receptor Binding Studies:
The experimental protocol follows the method described by Y. Hu, B. T. Bloomquist et al. in Y. Hu, B. T. Bloomquist et al., The Journal of Biological Chemistry, 1996, 271, 26315-26319 with modifications. Cells C6 were transfected with the rat Y5 receptor. The cells were grown under standard culture conditions in 150 cm^2 dishes and they were harvested using a rubber scraper and 10 ml PBS. The cells from five dishes were collected and centrifuged 2.500 g for 5 min. The pellet was washed by resuspending in 3 ml buffer (Tris-HCl 10 mM, pH 7.4), homogenized using a Potter S homogenizer, 10 strokes at 600 rpm and centrifuged in cold conditions at 48.000 g for 20 min (4° C.). The resulting pellet was resuspended in cold 8 ml membrane buffer (Tris-HCl 25 mM, NaCl 120 mM, KCl 5 mM, KH2PO4 1, 2 mM, CaCl2 2, 5 mM, MgSO4 1, 2 mM, BSA 0.15 mg/ml, Bacitracine 0.5 mg/ml, pH 7, 4) and rehomogenized using the Potter S, 10 strokes at 600 rpm. The protein concentration of the used membrane in the incubation was approximately 40 μg/ml. The radioligand is [^125I]-PYY in a concentration of 100 pM. The incubation volume is 200 μl. […] Non-specific binding is determined in the presence of 1 μM of NPY. […]

Row | Compound | Ki (Neuropeptide Y2 receptor) [µM] | melting point [°C] | further results
1 | Cl.O=C(CN1CCC(N2C(=O)OCc3ccccc32)CC1)Nc1ccc2c(c1)-c1ccccc1C2=O [Example 3a, 2-[4-(2-oxo-4H-benzo[d][1,3]oxazin-1-yl)-piperidin-1-yl]-N-(9-oxo-9H-fluoren-3-yl)-acetamide hydrochloride] | > 1 | > 275 | 
2 | CN(C)CCn1ccc2c(NS(=O)(=O)CCc3cccc4ccccc34)cccc21 [Example 5d, N-[1-(2-dimethylaminoethyl)-1H-indole-4-yl]-2-(naphthalene-1-yl)-ethanesulfonamide] |  | 47 to 54 | inhibition at 1 µM ([1]; 10^−6 M, compounds of general formula (Id), Table 1d): 98.1%
3 | CN(C)CCn1ccc2ccc(NS(=O)(=O)c3ccc(-c4ccccc4)cc3)cc21 [Example 5f, N-[1-(2-Dimethylaminoethyl)-1H-indol-6-yl]-4-phenylbenzenesulfonamide] |  |  | Ki ([1]; compounds of general formula (If), Table 1f): 0.129 µM
4 | O=C(CN1CCC(N2C(=O)OCc3ccccc32)CC1)Nc1ccc2c(c1)CCCC2=O [Example 6a, 2-[4-(2-oxo-4H-benzo[d][1,3]oxazin-1-ylipiperidin-1-yl]-N-(5-oxo-5,6,7,8-tetrahidro-naphthalene-2-yl)-acetamide hydrochloride] | > 1 |  | Ki (Neuropeptide Y5 receptor): 0.0184 µM
5 | Cc1ccc2c(c1)COC(=O)N2C1CCN(CC(=O)Nc2ccc3c(c2)-c2ccccc2C3=O)CC1.Cl [Example 20a, 2-[4-(6-methyl-2-oxo-4H-benzo[d][1,3]oxazin-1-yl)-piperidin-1-yl]-N-(9-oxo-9H-fluoren-3-yl)-acetamide hydrochloride] | > 1 | 250 to 252 | 
6 | O=C(CN1CCC(N2C(=O)OCc3cc(F)ccc32)CC1)Nc1ccc2ncccc2c1 [Example 111a, 2-[4-(6-Fluoro-2-oxo-4H-benzo[d][1,3]oxazin-1-yl)-piperidin-1-yl]-N-quinolin-6-yl-acetamide] |  |  | IC50 (rat Y5 receptor): 0.0077 µM

From patent publication US20070059364A1, “Active substance combination comprising a compound with npy receptor affinity and a compound with 5-ht6 receptor affinity” (Laboratorios Del Dr. Esteve S.A., priority 2003, published 2007)
